Source: patent publication EP0678295B1, “Manufacturing process of phospholipideactive principle complexes useful for the liposome preparation” (Citernesi, Ugo, priority 1994, dated 1995)

Test: Measurement of entrapment efficiency (ultracentrifugation of liposomes, HPLC determination of Vitamin A in both phases)
Type: physicochemical
Settings: liposomes from gelified phospholipid /Vitamin A complex (Example 1A) plus physiologic solution, 325 nm
Description: Measurement of entrapment efficiency.
A gelified phospholipid /Vitamin A complex was prepared according to the procedure described in Example 1A.
Liposomes were then obtained by adding a physiologic solution to the complex and subsequent stirring of the mixture.
The obtained liposomes have been subjected to ultracentrifugation in order to separate the liposome phase from the water phase. In both phases Vitamin A was determined as follows.
Phospholipid /vitamin A pellet resulting from the ultracentrifugation was dissolved in hexane, filtered under vacuum (0.2 .10^5 Pa) and determined by HPLC (high performance liquid chromatography) using two different HPLC columns: • 1) Column: Chromsep Nucleosil C18 100 mm x 3 ID Eluent: methanol Flow: 1 ml/min. Detecting wl: 325 nm • 2) Column: Pertsil 10 ODS Eluent: Methanol/water (90/10) Flow: 1ml/min. Detecting wl: 325 nm
The water phase coming from the ultracentrifugation was analyzed for its vitamin A content using the same HPLC procedure and columns.

Q: With `CC(=O)OC/C=C(C)/C=C/C=C(C)/C=C/C1=C(C)CCCC1(C)C` [Vitamin A, Vitamin A acetate] as the molecule, how does the “Vitamin A detected in the liposome phase” value (pellet after ultracentrifugation dissolved in hexane) read?
A: almost all

Q: And the “Vitamin A detected in the aqueous phase” value (water phase after ultracentrifugation)?
A: No Vitamin A was detected
